Results published in patent publication US9074019B2, “Methods, systems, and compositions for calpain inhibition” (HENRY FORD HEALTH SYSTEMS, priority 2008, dated 2015).
“And” between values parts separate entries of the source, which are not always exact repeats. Equal entries are not always repeated. “Also recorded” adds a separate entry of the source. Values belong to the substance of their own block, whether it stands above or below them. Square brackets hold non-standard residues; d marks the D form. Ends that are not written are not given here. βAla = NCCC(=O)O

Columns and labels:
[1] = test system: focal cerebral ischemia (2 hour MCAO); assay: Neurological score after 2 hour MCAO in rats; format: in vivo, male Wistar rats; conditions: for Neurological Score 0 Day: score 0-3 (3 most severe), day 0; for Neurological Score 1 Day: day 1
Experimental: (§1) Based on our studies, we selected and further tested SEQ ID NO: 5 for its cerebroprotective capacity after 2 hour middle cerebral artery (“MCAO”) ischemia in the Two hour MCAO by the suture method was induced in 21 male Wistar rats. […] Animals survived 7 days and neurological testing (score 0-3, 3 being the most severe) was performed. After sacrifice the brain samples were formalin fixed and infarct volumes were calculated using standard computerized image analysis. Independent t-test was used for statistical analysis.
(§2) Following an institutionally approved animal care protocol, male Wistar rats (270-290 g) were obtained from Charles River Breeding Co. (Wilmington, Mass., USA). Two-hour middle cerebral artery occlusion (MCAO) by the intravascular suture method, drug infusion, measurement of infarct volume and neurological deficits were performed as detailed previously.
(§3) SEQ ID NO: 5 (50 μM solution, i.v. infusion at 15 μl/min for 4 h; 3 mg/kg), SEQ ID NO: 13 or vehicle (1% DMSO in saline) was administered to rats […] (n=6-9) immediately after reperfusion following 2 h of MCAO. Sham-operated animals had surgery but no MCA occlusion. Animals to be studied for neurological score and infarct volume survived 7 days.
Neurological scores have been previously defined as follows: no observable deficit=0, forelimb flexion=1, decreased resistance to lateral push with forelimb flexion=2, same behavior as 2 plus circling=3. […] However, the difference in performance between the SEQ ID NO: 5-treated animals and the vehicle controls (1.00±0.17 vs. 1.78±0.22, *P<0.05, n=9 per group; independent t-test) and the SEQ ID NO: 13-treated group (1.00±0.17 vs. 1.44±0.18, #P<0.05, n=9 per group; independent t-test) was statistically significant at day 7 post-injury.
We assessed functional outcome as an endpoint of our evaluation by the method of Bederson et al. Treatment with SEQ ID NO: 5 immediately after 2-h MCAO reduced neurological deficits by 24% and 44% on day 4 and day 7, respectively, compared to vehicle-treated stroke controls. Infarct volume was a secondary outcome and was measured at day 7 after stroke. The extent of cerebral infarction was reduced by 35% in the SEQ ID NO: 5-treated animals compared to vehicle-treated animals Due to the predictable location of areas of infarction and consistent production of neurological deficits in the MCAO model used in this study, the effects of SEQ ID NO: 5 on neurological outcome and size of infarction produced by focal cerebral ischemia could be reliably studied. It must be noted, however, that, infarction volumes could correlate poorly with functional outcome because small lesions in cortical locations can produce major functional deficits. Conversely, large lesions in relatively silent areas cause little detectable function loss. Reduction of neurological deficits after stroke has been attributed to synaptic and functional reorganization in the cerebral cortex and in subcortical structures after ischemic injuries.
(§4) Two-hour middle cerebral artery occlusion (MCAO) was used to induce ischemic stroke in Male Wistar rats. SEQ ID NO: 5 was given intravenously to rats immediately after reperfusion following 2 h of MCAO, while control animals had infusion of vehicle solution (n=6-9). Animals to be studied for neurological score and infarct volume survived 7 days, and neurological testing (mNSS and corner turn) were performed at 1, 4, and 7 days after MCAO. In another set of experiments, the animals were sacrificed at 48 h, and histology was performed for BBB integrity (albumin and fibrin leakage from the cerebral microvasculature into brain parenchyma). Phosphorylation of endothelial nitric oxide synthase (eNOS) was analyzed by Western blotting with specific antibodies raised against synthetic phosphorylated peptides representing known eNOS phosphorylation sites.

[2] = test system: calpain-mediated cleavage of αII-spectrin; assay: Western blot of αII-spectrin breakdown products (SBDPs) in rat brain following MCAO; format: in vivo, male Wistar rats
Experimental: Following MCAO and drug infusion, the animals were sacrificed after 24 or 48 h of survival. At that time, the brains were extracted and separated into right and left, cortical and subcortical regions, snap-frozen in liquid nitrogen and stored at −80° C. until used. For Western blot analysis, the brain samples were pulverized to a fine powder with a small mortar and pestle set over dry ice. The pulverized brain tissue powder was homogenized in a solution of 0.25 M sucrose, […] 2-(N-morpholino)-ethanesulfonic acid, 1 mM EDTA, pH 6.5, containing 0.025 mM E-64, 2.0 mM AEBSF, 0.5 mM PMSF, 0.02 mM leupeptin, 0.05 mM pepstatin, and 0.001 mM aprotinin (homogenization buffer) at 4° C. in a Potter-Elvehjem homogenizer. T homogenates were then centrifuged at 4° C. for 20 min at 16,000 g. Aliquots of the supernatant were stored at −80° C. until used for experiments. Protein concentrations were determined using micro BCA Protein Assay kit (Pierce, Rockford, Ill.). SDS-PAGE was carried out according to Laemmli and immunoblots were performed according to the technique of Towbin et al. Mouse monoclonal ant II-spectrin antibody (MAB 1622, 1:1,000) and horse radish peroxidase (HRP)-conjugated goat anti-mouse IgG (AP124P, 1:10,000) were from Chemicon (Temecula, Calif.). Labeled proteins were detected with the enhanced chemiluminescence method according to the manufacturer's instructions (GE Healthcare Biosciences, Piscataway, N.J., USA). Bands were quantified by densitometry using Gel-Doc 2000 (Bio-Rad, Richmond, Va.) and the free open source software ImageJ.
Pathologic activity of calpain and in vivo efficacy of SEQ ID NO: 5 were assessed by Western blot analysis of all-spectrin breakdown products (SBDPs) generated in the rat brain following MCAO. […] (E) Densitometric analysis of SBDP150/SBDP145 levels in ipsilateral cortex and subcortex at 24 and 48 h following MCAO.

purified calpain = assay: Calpain-inhibitory activity (steady-state and stopped-flow enzyme inhibition kinetics); format: biochemical; conditions: in words
Text: (§5) We developed our peptidomimetic inhibitors of calpain by rational and systematic chemical modifications of the amide bond and/or side chain functionalities of permutations of SEQ ID NO: 2, followed by calpain-inhibitory kinetic measurements of the designed molecules in vitro as well as an assessment of their ability to improve neurological recovery in vivo after focal cerebral ischemic in rats. The structural modifications performed to create the peptidomimetics included, without limitation, amino acid replacements by chemical mutagenesis, amide bond mimics, methylene group insertion between the α-carbon and the carbonyl functionalities of individual amino acids, replacement of natural amino acid side chains with non-natural moieties, and amino acid side chain cyclizations. Calpain-inhibitory activity of the peptidomimetics was measured by steady-state and stopped-flow enzyme inhibition kinetic studies using purified calpain and natural protein or synthetic fluorogenic peptide substrates. The effect of the peptidomimetics on cerebral infarction, cerebral endothelial function and neurological functional recovery after ischemic stroke was assessed using a rat model of 2 hour middle cerebral artery (“MCAO”) ischemia.
as §3

BBB integrity = BBB integrity (albumin and fibrin leakage into brain parenchyma) after MCAO; format: in vivo, male Wistar rats
Experimental: as §4, with “sites. […] Shown are representative immunoblots of RSA levels in the ipsilateral cortical (A) and subcortical (B) regions of sham-operated, ischemic vehicle-treated, and ischemic. C, Densitometric analysis of RSA levels in ipsilateral cortex and subcortex (*p<0.05 vs vehicle; n=6) at 24 h following MCAO. […] Representative fluorescent micrographs of fibrin deposition outside the cerebral microvasculature of untreated (MCAO, panel A) and treated (+SEQ ID NO: 5, panel B) rats subjected to 2 hour MCA occlusion with reperfusion and 48 hour survival are shown. A schematic representation of a coronal brain section showing eight fields selected from the ischemic boundary zone (IBZ) for quantitative measurements of immunochemical staining for fibrin in the cortex and striatum is shown (panel C).” for “sites.”

[3] = test system: focal cerebral ischemia (2 hour MCAO); assay: Infarct volume after 2 hour middle cerebral artery occlusion (MCAO) in rats; format: in vivo, male Wistar rats; conditions: for infarct volume: 3 mg/kg i.v. 4 h, mean±SEM, no unit printed in this block, in %; for Lesion Volume % of Hemisphere (percent hemispheric infarct volume): 3 mg/kg i.v. infusion for 4 h after reperfusion, mean ± SE, n=9, 3 mg/kg
Text: as §5, §1, §2, §3
From the H&E sections, the ischemic core area with diffuse pallor of the eosinophilic background and the border area with vacuolation or sponginess and neutrophils can be identified under the microscope. […] The subcortical region in the core slices of C and D is also affected (white arrows). The ischemic damage (i.e. cell death, loss of tissue, or encephalomalacia) is less in the SEQ ID NO: 5-treated animals compared to the vehicle-treated controls. By comparison, the contralateral side appeared undamaged by both gross inspection and in histological sections.

[4] = test system: endothelial nitric oxide synthase (eNOS); assay: eNOS phosphorylation in brain after MCAO (Western blotting); format: in vivo, male Wistar rats
Experimental: as §4
C: Graphical representation of the ratio of upper:lower phospho-eNOS protein band intensities (n=6 rats/experimental group).

[5] = rat 2-h MCAO, 3 mg/kg i.v. 4 h, mean ± SE, n=9
[6] = rat 2-h MCAO, 3 mg/kg i.v. 4 h, score 0-3, mean ± SE, n=9
[7] = rat 2-h MCAO, 3 mg/kg i.v. 4 h, score 0-3, mean ± SE, n=9, day 4

Substance: DPMSSTYIEELGKREVTIPPKYVALLPAVLLALLAP [SEQ ID NO: 5]
- improving neurological recovery ([1]; 50 micromolar solution via femoral vein for 4 hours after reperfusion, total dose 3 mg/kg): effective
- Neurological Score 0 Day [1, 5]: 2.89 ± 0.11
- Neurological Score 1 Day [1, 6]: 2.33 ± 0.24
- Neurological Score 4 Days [1, 7]: 1.44 ± 0.18
- reduction of neurological deficits compared to vehicle-treated stroke controls, day 4 ([1]; rat 2-h MCAO, treatment immediately after MCAO, day 4): 24%
- reduction of neurological deficits compared to vehicle-treated stroke controls, day 7 ([1]; rat 2-h MCAO, treatment immediately after MCAO, day 7): 44%
- calpain-mediated cleavage of αII-spectrin in rat brain following MCAO ([2]; FIG. 4, 24 h and 48 h): blocks calpain-mediated cleavage of αII-spectrin
- SBDP145 levels at 48 h post-injury ([2]; cortical and subcortical regions, 48 h after MCAO, P<0.05 vs. vehicle, n=6): significantly reduced SBDP145 levels
- SBDP150 and SBDP145 formation at 24 h post-injury ([2]; ipsilateral cortex and subcortex, 24 h after MCAO): blocked SBDP150 and SBDP145 formation to basal levels; also recorded: completely blocked SBDP145 accumulation
- calpain inhibitory activity (purified calpain): potent
- specificity for calpain (purified calpain): specific inhibitor of calpain
- BBB integrity as assessed by albumin and fibrin extravasation (BBB integrity; 48 h, compared to controls): significant improvement
- rat serum albumin (RSA) leakage into the ischemic brain parenchyma (BBB integrity; FIG. 5, ipsilateral cortex and subcortex, 24 h following MCAO, p<0.05 vs vehicle, n=6): reduces rat serum albumin (RSA) leakage
- fibrin deposition outside the cerebral microvasculature (BBB integrity; FIG. 6, 2 hour MCA occlusion with reperfusion and 48 hour survival): decreases fibrin deposition outside the cerebral microvasculature
- toxicity to cultured cells (cultured cells): non-toxic to cultured cells
- ischemic damage (cell death, loss of tissue, encephalomalacia) in H&E sections ([3]; FIG. 3, compared to vehicle-treated controls): less
- infarct volume ([3]; rat 2-h MCAO, day 7): 24.9±3.8
- Lesion Volume % of Hemisphere (percent hemispheric infarct volume) ([3]; rat 2-h MCAO, day 7): 24.9±3.8 % of Hemisphere and 24.9 ± 3.8*^,# % of Hemisphere
- reduction of infarct volume (extent of cerebral infarction) compared to vehicle-treated animals ([3]; rat 2-h MCAO, day 7): 35%
- eNOS phosphorylation state (eNOS-Ser633, ratio of upper:lower band) ([4]; FIG. 7, n=6 rats/group): modulates eNOS phosphorylation state
- eNOS threonine-495 phosphorylation in the brain after stroke ([4]; post-injury treatment, FIG. 8): significantly reduced; also recorded: induces eNOS-Thr495 dephosphorylation

- calpain inhibitory activity (purified calpain): less active
- calpain inhibitory activity (purified calpain; listed as SEQ ID NO: 5-βAla): inactive
Substance: DPMSSTYIEE[βAla]GKREVTIPPKYVALLPAVLLALLAP [SEQ ID NO: 13, reference compound]
- Neurological Score 0 Day [1, 5]: 2.89 ± 0.11
- Neurological Score 1 Day [1, 6]: 2.11 ± 0.20
- Neurological Score 4 Days [1, 7]: 1.56 ± 0.18
- Neurological Score 7 Days ([1]; rat 2-h MCAO, 3 mg/kg i.v. 4 h, score 0-3, mean ± SE, n=9, day 7, 3 mg/kg): 1.44±0.18
- infarct volume ([3]; rat 2-h MCAO, day 7): 33.8±4.2
- Lesion Volume % of Hemisphere (percent hemispheric infarct volume) ([3]; rat 2-h MCAO, day 7): 33.8±4.2 % of Hemisphere
